The values below come from BindingDB's records for doi:10.1016/j.bioorg.2011.05.001 (Medical University of Lodz, 2011).

The IC50 is the concentration that inhibits the measured activity by half. A lower IC50 goes with greater potency.

Experiment [1] addresses Acetylcholinesterase (Electrophorus electricus, UniProt O42275). As to the kind of experiment: Enzyme Assay. From the text:
(§1) Enzyme activity using acetylcholinesterase (AChE) and butyrylcholinesterase (BChE).

Experiment [2] concerns the target Carboxylic ester hydrolase (Equus caballus, UniProt Q9N1N9). As to the kind of experiment: Enzyme Assay.
From the text: as §1

SMILES strings stand for the structures. Counter-ions that a name gives are not always drawn.

Acetylcholinesterase, sequence (O42275 whole entry): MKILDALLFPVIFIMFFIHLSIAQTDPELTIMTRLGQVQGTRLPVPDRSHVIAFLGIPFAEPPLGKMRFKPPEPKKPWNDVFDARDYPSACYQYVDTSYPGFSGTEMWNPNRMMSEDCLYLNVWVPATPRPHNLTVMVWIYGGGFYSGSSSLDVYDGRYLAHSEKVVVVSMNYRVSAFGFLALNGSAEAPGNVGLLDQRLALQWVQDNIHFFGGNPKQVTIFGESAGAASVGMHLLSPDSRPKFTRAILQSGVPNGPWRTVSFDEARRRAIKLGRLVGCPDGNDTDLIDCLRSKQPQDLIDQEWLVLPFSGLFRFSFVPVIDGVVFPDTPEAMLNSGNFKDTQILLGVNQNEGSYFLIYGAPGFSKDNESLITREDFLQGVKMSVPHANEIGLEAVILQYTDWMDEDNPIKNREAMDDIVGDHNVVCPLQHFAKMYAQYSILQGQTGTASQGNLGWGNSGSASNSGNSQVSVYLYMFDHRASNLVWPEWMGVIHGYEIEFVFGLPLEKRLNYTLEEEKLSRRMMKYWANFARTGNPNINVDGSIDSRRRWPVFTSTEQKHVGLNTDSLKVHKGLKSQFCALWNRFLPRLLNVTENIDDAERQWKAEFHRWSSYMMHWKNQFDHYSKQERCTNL
Carboxylic ester hydrolase, sequence (Q9N1N9 whole entry): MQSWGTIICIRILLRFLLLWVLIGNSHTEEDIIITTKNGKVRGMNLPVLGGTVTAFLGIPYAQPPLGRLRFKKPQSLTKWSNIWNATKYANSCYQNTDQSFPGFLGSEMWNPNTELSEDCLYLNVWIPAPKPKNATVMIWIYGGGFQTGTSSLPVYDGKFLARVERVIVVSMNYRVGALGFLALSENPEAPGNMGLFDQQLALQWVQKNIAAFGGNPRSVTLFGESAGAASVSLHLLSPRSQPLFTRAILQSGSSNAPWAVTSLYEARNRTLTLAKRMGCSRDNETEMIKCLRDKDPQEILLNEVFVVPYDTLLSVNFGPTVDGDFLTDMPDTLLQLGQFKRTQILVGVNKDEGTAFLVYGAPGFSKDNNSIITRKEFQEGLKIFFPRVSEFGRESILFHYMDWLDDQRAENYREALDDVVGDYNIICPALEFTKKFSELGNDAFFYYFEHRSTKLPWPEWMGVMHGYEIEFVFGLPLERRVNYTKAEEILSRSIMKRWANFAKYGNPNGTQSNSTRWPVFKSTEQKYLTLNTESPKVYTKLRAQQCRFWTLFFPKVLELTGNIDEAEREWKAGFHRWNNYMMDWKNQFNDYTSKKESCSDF

For `NNc1ccc(C(=O)NCCCCNc2c3c(nc4ccccc24)CCCC3)cn1` [Nicotinamide hydrochloride analog, 6a], the IC50 in experiment [1] is 440 nM; in experiment [2] it was 1.45 nM. With `NNc1ccc(C(=O)NCCCCCCCNc2c3c(nc4ccccc24)CCCC3)cn1` [Nicotinamide hydrochloride analog, 6c], the IC50 in experiment [1] is 721 nM; in experiment [2], 1.13 nM. In experiment [1], `NNc1ccc(C(=O)NCCCCCNc2c3c(nc4ccccc24)CCCC3)cn1` [Nicotinamide hydrochloride analog, 6b] displayed an IC50 of 308 nM.
